Source: US9353150B2, “Substituted pyrazino[1′,2′:1 ,5]pyrrolo[2,3-b]-indole-1,4-diones for cancer treatment” (Massachusetts Institute of Technology, priority 2012, dated 2016)
“Also recorded” adds a separate entry of the source. Read-outs that look alike come from different tables or passages of the source.

Columns and labels:
[1] = tested on: HeLa (cervical carcinoma); assay: 72-hour IC50 determination for adherent cells using sulforhodamine B (SRB); type: cell-based, human; conditions: 72-hour exposure
How it was run: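 HeLa cells were seeded at 5,000 cells/well in RPMI-1640 with 10% FBS and exposed continuously for 72 hours to compounds on a half-log scale (1% DMSO final, triplicate). Cells were then TCA-fixed, stained with sulforhodamine B and read at 510 nm. IC50 values came from three or more independent experiments.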

[2] = tested on: U-937 cells; assay: Apoptosis in U-937 cells with Annexin V-FITC and propidium iodide (AnnV/PI), flow cytometry; type: cell-based, human; conditions: 24 hours, compounds at 100-times their 72-hour IC50
Protocol: DMSO stocks of compounds were added to a 24-well plate in singlicate (0.2% DMSO final). After compound addition, 0.5 mL of a U-937 cell suspension (250,000 cells/mL) was added and allowed to incubate for 24 hours. Following treatment, the cell suspensions were transferred to flow cytometry tubes and pelleted (500 g, 3 min). The media was removed by aspiration, and cells were re-suspended in 200 μL AnnV binding buffer (10 mM HEPES, pH 7.4, 140 mM NaCl, 2.5 mM CaCl2) with 5 μg/mL PI and 1:90 dilution of AnnV. Samples were analyzed using flow cytometry.

[3] = tested on: H460 (lung carcinoma); assay: 72-hour IC50 determination for adherent cells using sulforhodamine B (SRB); type: cell-based, human; conditions: error is standard deviation of the mean, n ≧ 3, read-out: H460, 72-hour IC50 (Table E1-2)
Protocol: (§1) Certain provided compounds were tested in culture against a panel of three supplementary human cancer cell lines representing three additional tumor histologies (H460, lung carcinoma; 786-O, renal carcinoma; MCF-7, breast carcinoma). As shown in Table E1-2, the ETPs retain their potency across the cell lines. In some embodiments, a provided compound is active in all cell lines. In some embodiments, a provide compound can be used to selectively target certain cells and/or cancers. […] Without the intention to be limited, Applicant notes that certain cell lines could be more sensitive to provided compounds; for example, U-937 and HeLa are slightly more sensitive to the ETPs than the other three cell lines.
(§2) Cells were grown in media supplemented with fetal bovine serum (FBS) and antibiotics ([…]). Specifically, experiments were performed using the following cell lines and media compositions: U-937, HeLa, H460, and 786-O (RPMI-1640+10% FBS), and MCF7 (EMEM+10% FBS). Cells were incubated at 37° C. in a 5% CO2, 95% humidity atmosphere.
(§3) Adherent cells (HeLa, H460, 786-O, and MCF7) were added into 96-well plates (5,000 cells/well for HeLa cell line; 2,000 cells/well for H460, 786-O, and MCF7 cell lines) in 100 μL media and were allowed to adhere for 2-3 hours. Compounds were solubilized in DMSO as 100× stocks, added directly to the cells (100 μL final volume), and tested over a range of concentrations in triplicate (1% DMSO final) on a half-log scale. Concentrations tested ranged from […] to 10 μM, depending on the potency of the compound. DMSO and cell-free wells served as the live and dead control, respectively. After 72 hours of continuous exposure, the plates were evaluated using the SRB colorimetric assay as described previously (Vichai, V.; Kirtikara, K. Nature Prot. 2006, 1, 1112). Briefly, media was removed from the plate, and cells were fixed by the addition of 100 μL cold 10% trichloroacetic acid in water. After incubating at 4° C. for an hour, the plates were washed in water and allowed to dry. Sulforhodamine B was added as a 0.057% solution in 1% acetic acid (100 μL), and the plates were incubated at room temperature for 30 minutes, washed in 1% acetic acid, and allowed to dry. The dye was solubilized by adding 10 mM Tris base solution (pH 10.5, 200 μL) and incubating at room temperature for 30 minutes. Plates were read at λ=510 nm. IC50 values were determined from three or more independent experiments using TableCurve (San Jose, Calif.).

[4] = tested on: 786-O (renal carcinoma); assay: as above; type: cell-based, human; conditions: error is standard deviation of the mean, n ≧ 3, read-out: 786-O, 72-hour IC50 (Table E1-2)
Protocol: as §1, §2, §3

[5] = tested on: MCF-7 (breast carcinoma); assay: as above; type: cell-based, human; conditions: error is standard deviation of the mean, n ≧ 3, read-out: MCF-7, 72-hour IC50 (Table E1-2)
Protocol: as §1, §2, §3

[6] = tested on: U-937 (hystiocytic lymphoma); assay: 72-hour IC50 determination for non-adherent cells using MTS; type: cell-based, human; conditions: 72-hour exposure
How it was run: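 U-937 cells (5,000/well) in RPMI-1640 + 10% FBS were exposed to compounds in triplicate (1% DMSO final) for 72 h at 37 °C. Viability was read by PMS/MTS absorbance at 490 nm, with DMSO wells as live and cell-free wells as dead controls. IC50 came from three or more independent experiments.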

[7] = Stability observed on isolation (concentration / solution); conditions: observed during isolation and characterization
[8] = tested on: human cancer cell lines; assay: Anticancer activity in human cancer cell lines, not tied to one cell line; type: cell-based; conditions: for anticancer activity, in words: human cancer cell lines, 72-hour exposure
How it was run: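 Cells exposed 72 h to compound on a half-log scale (1% DMSO final); adherent lines (HeLa, H460, 786-O, MCF7) read by SRB staining at 510 nm, U-937 by MTS/PMS absorbance at 490 nm. IC50 from three or more independent experiments.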

[9] = Solubility observed on isolation; conditions: in CH2Cl2, CHCl3, EtOAc, MeOH, DMSO
[10] = SRB, error is standard deviation of the mean, n ≧ 3, read-out: HeLa, 72-hour IC50 (Table E1-1)
[11] = SRB, error is standard deviation of the mean, n ≧ 3, read-out: HeLa, 72-hour IC50 (Table E1-2)
[12] = MTS, error is standard deviation of the mean, n ≧ 3, read-out: U-937, 72-hour IC50 (Table E1-1)
[13] = MTS, error is standard deviation of the mean, n ≧ 3, read-out: U-937, 72-hour IC50 (Table E1-2)
[14] = Homo sapiens, HeLa, SRB, error is standard deviation of the mean, n ≧ 3, read-out: HeLa, 72-hour IC50 (Table E1-1)
[15] = Homo sapiens, HeLa, SRB, error is standard deviation of the mean, n ≧ 3, read-out: HeLa, 72-hour IC50 (Table E1-2)
[16] = Homo sapiens, NCI-H460, 72-hour exposure
[17] = Homo sapiens, 786-0, 72-hour exposure
[18] = Homo sapiens, MCF7, 72-hour exposure
[19] = Homo sapiens, U-937, MTS, error is standard deviation of the mean, n ≧ 3, read-out: U-937, 72-hour IC50 (Table E1-1)
[20] = Homo sapiens, U-937, MTS, error is standard deviation of the mean, n ≧ 3, read-out: U-937, 72-hour IC50 (Table E1-2)

SMILES: CN1C(=O)C23CC4(c5c[nH]c6ccccc56)c5ccccc5N(S(=O)(=O)c5ccccc5)C4N2C(=O)C1SS3 (centres unmarked) [Compound 26, C3-(Indol-3′-yl) epidithiodiketopiperazine]
- IC50 [1, 10]: 41.7 ± 5.7 nM
- IC50 [1, 11]: 41.7 ± 5.7 nM
- induction of apoptosis (phosphatidylserine exposure / propidium iodide inclusion) [2]: induce caspase-dependent apoptotic cell death; also recorded: induce apoptosis
- IC50 ([3]; 72-hour exposure): 66 ± 19 nM
- IC50 ([4]; 72-hour exposure): 62.7 ± 7.6 nM
- IC50 ([5]; 72-hour exposure): 67 ± 19 nM
- IC50 [6, 12]: 2.8 ± 0.3 nM
- IC50 [6, 13]: 2.8 ± 0.3 nM

SMILES: CN1C(=O)[C@@]23C[C@]4(c5c[nH]c6ccccc56)c5ccccc5N(S(=O)(=O)c5ccccc5)[C@@H]4N2C(=O)[C@@H]1SSSS3 [Compound 28, C3-(Indol-3′-yl) epitetrathiodiketopiperazine]
- IC50 [1, 14]: 137 ± 86 nM
- IC50 [1, 15]: 137 ± 86 nM
- IC50 [3, 16]: 277 ± 43 nM
- IC50 [4, 17]: 344 ± 20 nM
- IC50 [5, 18]: 309 ± 31 nM
- stability upon concentration or in solution [7]: instability in solution
- IC50 [6, 19]: 8.3 ± 3.3 nM
- IC50 [6, 20]: 8.3 ± 3.3 nM

SMILES: CN1C(=O)[C@@]23C[C@]4([C@]56C[C@@]78SS[C@@](C)(C(=O)N7[C@H]5N(S(=O)(=O)c5ccccc5)c5ccccc56)N(C)C8=O)c5ccccc5N(S(=O)(=O)c5ccccc5)[C@@H]4N2C(=O)[C@]1(C)SS3 [Compound 14, Dimeric epidithiodiketopiperazine]
- IC50 [1, 10]: 0.09 ± 0.06 nM
- IC50 [1, 11]: 0.09 ± 0.06 nM
- IC50 ([1]; read-out: IC50 (HeLa)): 0.09 nM
- anticancer activity, in words [8]: active across the board
- potency relative to (+)-12,12′-dideoxyverticillin A (3) ([8]; more potent than the corresponding secondary aniline 3): 2 orders of magnitude
- induction of apoptosis (phosphatidylserine exposure / propidium iodide inclusion) [2]: induce caspase-dependent apoptotic cell death; also recorded: induce apoptosis
- IC50 ([3]; 72-hour exposure): 1.53 ± 0.85 nM
- IC50 ([4]; 72-hour exposure): 1.55 ± 0.77 nM
- IC50 ([5]; 72-hour exposure): 1.65 ± 0.51 nM
- IC50 [6, 12]: 0.18 ± 0.06 nM
- IC50 [6, 13]: 0.18 ± 0.06 nM
- IC50 ([6]; read-out: IC50 (U-937)): 0.18 nM

SMILES: CN1C(=O)C23CC4(c5c[nH]c6ccccc56)c5ccccc5N(S(=O)(=O)c5ccccc5)[C@@H]4N2C(=O)[C@H]1SC(=S)S3 (some centres unmarked) [Compound 36, C3-(Indol-3′-yl)dithiepanethione]
- IC50 [1, 14]: 33 ± 13 nM
- IC50 [1, 15]: 33 ± 13 nM
- anticancer activity, in words [8]: competent anticancer agents
- IC50 [3, 16]: 190 ± 61 nM
- IC50 [4, 17]: 133 ± 10 nM
- IC50 [5, 18]: 163 ± 7 nM
- stability upon concentration or in solution [7]: tends to degrade
- IC50 [6, 19]: 3.8 ± 0.9 nM
- IC50 [6, 20]: 3.8 ± 0.9 nM

SMILES: CN1C(=O)[C@@]23C[C@]4(c5c[nH]c6ccccc56)c5ccccc5N(S(=O)(=O)c5ccccc5)[C@@H]4N2C(=O)[C@@H]1SSS3 [Compound 27, C3-(Indol-3′-yl) epitrithiodiketopiperazine]
- IC50 [1, 14]: 27.5 ± 9.2 nM
- IC50 [1, 15]: 27.5 ± 9.2 nM
- IC50 [3, 16]: 146 ± 6.9 nM
- IC50 [4, 17]: 145 ± 10 nM
- IC50 [5, 18]: 151 ± 31 nM
- stability upon concentration or in solution [7]: tends to degrade
- IC50 [6, 19]: 36.6 ± 2.4 nM
- IC50 [6, 20]: 36.6 ± 2.4 nM

SMILES: CN1C(=O)[C@@]23C[C@]4(c5c[nH]c6ccccc56)c5ccccc5N[C@@H]4N2C(=O)[C@@H]1SSS3 [Compound 29, C3-(Indol-3′-yl) epitrithiodiketopiperazine]
- IC50 [1, 14]: 123 ± 29 nM
- IC50 [1, 15]: 123 ± 29 nM
- IC50 [3, 16]: 348 ± 110 nM
- IC50 [4, 17]: 168 ± 34 nM
- IC50 [5, 18]: 217 ± 35 nM
- stability upon concentration or in solution [7]: tends to degrade
- IC50 [6, 19]: 24.5 ± 7.4 nM
- IC50 [6, 20]: 24.5 ± 7.4 nM

SMILES: CN1C(=O)[C@@]23C[C@]4([C@]56C[C@@]78SSS[C@@](CO)(C(=O)N7[C@H]5Nc5ccccc56)N(C)C8=O)c5ccccc5N[C@@H]4N2C(=O)[C@]1(CO)SSS3 [Compound 5, (+)-chaetocin C]
- IC50 [1, 10]: 6.3 ± 0.6 nM
- IC50 [1, 11]: 6.3 ± 0.6 nM
- anticancer activity, in words [8]: active across the board
- induction of apoptosis (phosphatidylserine exposure / propidium iodide inclusion) [2]: induce caspase-dependent apoptotic cell death; also recorded: induce apoptosis
- IC50 ([3]; 72-hour exposure): 26 ± 9.3 nM
- IC50 ([4]; 72-hour exposure): 14.6 ± 0.8 nM
- IC50 ([5]; 72-hour exposure): 27 ± 11 nM
- IC50 [6, 12]: 0.75 ± 0.13 nM
- IC50 [6, 13]: 0.75 ± 0.13 nM

SMILES: CN1C(=O)[C@@]23C[C@]4(c5c[nH]c6ccccc56)c5ccccc5N(S(=O)(=O)c5ccccc5)[C@@H]4N2C(=O)[C@@H]1S3 [Compound 25, C3-(Indol-3′-yl)epimonothiodiketopiperazine]
- IC50 [1, 14]: 1480 ± 182 nM
- IC50 [6, 19]: 710 ± 134 nM
- solubility [9]: Limited solubility
